Values quoted from earlier work in US7867716B2 (priority 2004, dated 2011).

Experiments:
WT-αHL = WT-αHL (Staphylococcus aureus, UniProt P09616)
glucoamylase = glucoamylase (Aspergillus niger, UniProt P69328)
Chain of glucoamylase (P69328 25-640 limits assumed): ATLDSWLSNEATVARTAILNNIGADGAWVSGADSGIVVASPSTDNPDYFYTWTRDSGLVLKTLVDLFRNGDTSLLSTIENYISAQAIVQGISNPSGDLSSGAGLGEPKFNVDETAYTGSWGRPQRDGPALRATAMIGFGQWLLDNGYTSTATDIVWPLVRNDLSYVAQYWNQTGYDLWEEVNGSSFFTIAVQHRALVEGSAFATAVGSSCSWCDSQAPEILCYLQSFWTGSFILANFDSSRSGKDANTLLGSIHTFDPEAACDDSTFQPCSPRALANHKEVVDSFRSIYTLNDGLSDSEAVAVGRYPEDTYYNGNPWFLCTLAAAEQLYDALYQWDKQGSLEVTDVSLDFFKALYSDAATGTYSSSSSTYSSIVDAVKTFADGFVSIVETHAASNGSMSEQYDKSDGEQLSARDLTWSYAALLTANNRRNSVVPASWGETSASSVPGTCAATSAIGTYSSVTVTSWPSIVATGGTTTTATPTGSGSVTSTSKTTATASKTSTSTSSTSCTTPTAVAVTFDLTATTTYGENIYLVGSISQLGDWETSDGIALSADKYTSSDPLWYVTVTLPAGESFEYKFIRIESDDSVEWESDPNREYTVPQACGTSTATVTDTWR

Chain of WT-αHL (P09616 27-319 limits assumed): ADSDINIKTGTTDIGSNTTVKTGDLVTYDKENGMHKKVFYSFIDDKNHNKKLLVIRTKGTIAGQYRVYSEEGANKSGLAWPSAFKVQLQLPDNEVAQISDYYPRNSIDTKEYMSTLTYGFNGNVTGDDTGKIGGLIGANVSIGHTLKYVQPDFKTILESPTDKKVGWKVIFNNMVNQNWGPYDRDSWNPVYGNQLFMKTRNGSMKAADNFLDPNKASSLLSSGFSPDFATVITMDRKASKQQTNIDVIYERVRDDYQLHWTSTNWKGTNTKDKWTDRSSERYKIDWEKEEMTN

Substance: β-cyclodextrin [βCD]
- Kf (trans) (WT-αHL): 300 M⁻¹
- formation constant Kf for WT-αHL with βCD (WT-αHL): 290 M⁻¹
- ΔS° (glucoamylase): −90 J mol^−1 K^−1
